Source: US11083725B2 (priority 2014, dated 2021)

System: NHBE cells
Test: Biolog metabolic array: substrate use by NHBE cells with or without CA09 infection
Assay type: cell-based, human
Settings: for Substrate use, 590 nm absorbance normalized to zero hour, 0 hr: Biolog PMM2, 0 hr; for Substrate use, 590 nm absorbance normalized to zero hour, 1 hr: Biolog PMM2, 1 hr; for Substrate use, 590 nm absorbance normalized to zero hour, 5 hr: Biolog PMM2, 5 hr; for Substrate use, 590 nm absorbance normalized to zero hour, 7 hr: Biolog PMM2, 7 hr
[1] = Control (uninfected) NHBE cells
[2] = Virus (CA09-infected NHBE cells, MOI 1)
[3] = Virus: CA09-infected NHBE cells, MOI 1, Biolog PMM2
[4] = Virus (CA09, MOI 1) infected NHBE cells
[5] = Virus (CA09-infected, MOI 1) NHBE cells

Structure (SMILES)	590 nm absorbance normalized to zero hour (substrate use), 0 hr [1]	590 nm absorbance normalized to zero hour (substrate use), 1 hr [1]	590 nm absorbance normalized to zero hour (substrate use), 2 hr [1]	590 nm absorbance normalized to zero hour (substrate use), 3 hr [1]	590 nm absorbance normalized to zero hour (substrate use), 4 hr [1]	590 nm absorbance normalized to zero hour (substrate use), 6 hr [1]	590 nm absorbance normalized to zero hour (substrate use), 8 hr [1]	590 nm absorbance normalized to zero hour (substrate use), 9 hr [1]	590 nm absorbance normalized to zero hour (substrate use), 10 hr [1]	590 nm absorbance normalized to zero hour (substrate use), 11 hr [1]	Substrate use, 590 nm absorbance normalized to zero hour, 0 hr [1]	Substrate use, 590 nm absorbance normalized to zero hour, 1 hr [1]	Substrate use, 590 nm absorbance normalized to zero hour, 5 hr [1]	Substrate use, 590 nm absorbance normalized to zero hour, 7 hr [1]	590 nm absorbance normalized to zero hour (substrate use), 0 hr [2]	590 nm absorbance normalized to zero hour (substrate use), 1 hr [2]	590 nm absorbance normalized to zero hour (substrate use), 2 hr [2]	590 nm absorbance normalized to zero hour (substrate use), 3 hr [2]	590 nm absorbance normalized to zero hour (substrate use), 4 hr [2]	590 nm absorbance normalized to zero hour (substrate use), 5 hr [2]	other results
O[C@H]1[C@H](O)[C@@H](O)[C@H](O)[C@@H](O)[C@H]1O [m-Inositol]	1.00	1.63	2.13	3.87	3.78	3.01	3.42	3.81	3.89	3.64	1.00	1.63	3.07	3.55	1.00	0.51	0.66	0.77	0.81	0.94	Substrate use, 590 nm absorbance normalized to zero hour, 11 hr (Control (uninfected) NHBE cells, Biolog PMM2, 11 hr): 4.22; 590 nm absorbance normalized to zero hour (substrate use), 6 hr [2]: 0.99; 590 nm absorbance normalized to zero hour (substrate use), 7 hr [2]: 1.04; 590 nm absorbance normalized to zero hour (substrate use), 8 hr [2]: 1.10; 590 nm absorbance normalized to zero hour (substrate use), 9 hr [2]: 1.20; 590 nm absorbance normalized to zero hour (substrate use), 10 hr [2]: 1.24; 590 nm absorbance normalized to zero hour (substrate use), 11 hr [2]: 1.34; 590 nm absorbance normalized to zero hour (substrate use), 0 hr [3]: 1.00; 590 nm absorbance normalized to zero hour (substrate use), 1 hr [3]: 0.51; 590 nm absorbance normalized to zero hour (substrate use), 2 hr [3]: 0.66; 590 nm absorbance normalized to zero hour (substrate use), 3 hr [3]: 0.77; 590 nm absorbance normalized to zero hour (substrate use), 4 hr [3]: 0.81; 590 nm absorbance normalized to zero hour (substrate use), 5 hr [3]: 0.94; 590 nm absorbance normalized to zero hour (substrate use), 6 hr [3]: 0.99; 590 nm absorbance normalized to zero hour (substrate use), 7 hr [3]: 1.04; 590 nm absorbance normalized to zero hour (substrate use), 8 hr [3]: 1.10; 590 nm absorbance normalized to zero hour (substrate use), 9 hr [3]: 1.20; 590 nm absorbance normalized to zero hour (substrate use), 10 hr [3]: 1.24; 590 nm absorbance normalized to zero hour (substrate use), 11 hr [3]: 1.34
O=C(O)C(O)C(O)C(=O)O (stereo not drawn) [m-Tartaric Acid]	1.00	1.39	1.72	2.14	2.16	3.24	2.82	2.95	2.65	2.75	1.00	1.39	2.42	2.70	1.00	1.50	1.66	1.90	1.96	2.05	590 nm absorbance normalized to zero hour (substrate use), 6 hr [2]: 2.17; 590 nm absorbance normalized to zero hour (substrate use), 7 hr [2]: 2.23; 590 nm absorbance normalized to zero hour (substrate use), 8 hr [2]: 2.28; 590 nm absorbance normalized to zero hour (substrate use), 9 hr [2]: 2.43; 590 nm absorbance normalized to zero hour (substrate use), 10 hr [2]: 2.40; 590 nm absorbance normalized to zero hour (substrate use), 11 hr [2]: 2.41; 590 nm absorbance normalized to zero hour (substrate use), 0 hr [3]: 1.00; 590 nm absorbance normalized to zero hour (substrate use), 1 hr [3]: 1.50; 590 nm absorbance normalized to zero hour (substrate use), 2 hr [3]: 1.66; 590 nm absorbance normalized to zero hour (substrate use), 3 hr [3]: 1.90; 590 nm absorbance normalized to zero hour (substrate use), 4 hr [3]: 1.96; 590 nm absorbance normalized to zero hour (substrate use), 5 hr [3]: 2.05; 590 nm absorbance normalized to zero hour (substrate use), 6 hr [3]: 2.17; 590 nm absorbance normalized to zero hour (substrate use), 7 hr [3]: 2.23; 590 nm absorbance normalized to zero hour (substrate use), 8 hr [3]: 2.28; 590 nm absorbance normalized to zero hour (substrate use), 9 hr [3]: 2.43; 590 nm absorbance normalized to zero hour (substrate use), 10 hr [3]: 2.40; 590 nm absorbance normalized to zero hour (substrate use), 11 hr [3]: 2.41
CC(=O)N[C@H]1[C@H]([C@H](O)[C@H](O)CO)OC(O)(C(=O)O)C[C@@H]1O (stereo partly drawn) [n-acetyl-neuraminic acid]	1.00	0.19	0.21	0.19	0.20	0.36	0.27	0.29	0.32	0.25	1.00	0.19	0.23	0.26							Substrate use, 590 nm absorbance normalized to zero hour, 0 hr [4]: 1.00; Substrate use, 590 nm absorbance normalized to zero hour, 1 hr [4]: 4.77; Substrate use, 590 nm absorbance normalized to zero hour, 5 hr [4]: 1.43; Substrate use, 590 nm absorbance normalized to zero hour, 7 hr [4]: 1.58; 590 nm absorbance normalized to zero hour (substrate use), 0 hr [5]: 1.00; 590 nm absorbance normalized to zero hour (substrate use), 1 hr [5]: 4.77; 590 nm absorbance normalized to zero hour (substrate use), 2 hr [5]: 3.35; 590 nm absorbance normalized to zero hour (substrate use), 3 hr [5]: 3.95; 590 nm absorbance normalized to zero hour (substrate use), 4 hr [5]: 3.57; 590 nm absorbance normalized to zero hour (substrate use), 6 hr [5]: 2.71; 590 nm absorbance normalized to zero hour (substrate use), 8 hr [5]: 1.60; 590 nm absorbance normalized to zero hour (substrate use), 9 hr [5]: 1.61; 590 nm absorbance normalized to zero hour (substrate use), 10 hr [5]: 1.82; 590 nm absorbance normalized to zero hour (substrate use), 11 hr [5]: 2.21
